# pIC50: −log10 of the molar value.
# Experiments:
# Type in all cases: functional, cell-based
# [1] = tested on: KNS-62; test: cells; settings: Homo sapiens;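 also: inhibition of cell growth, read out with a cell viability assay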
# Description: SANGER: Inhibition of human KNS-62 cell growth in a cell viability assay.
# [2] = tested on: TGBC11TKB; test: cells; settings: Homo sapiens;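 also: growth inhibition of human TGBC11TKB cells, measured by a cell viability assay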
# Description: SANGER: Inhibition of human TGBC11TKB cell growth in a cell viability assay.
# [3] = tested on: A549; test: cells; settings: Homo sapiens;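 also: growth inhibition of A549 cells, read out with a cell viability assay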
# Description: SANGER: Inhibition of human A549 cell growth in a cell viability assay.
# [4] = tested on: ECC10; test: cells; settings: Homo sapiens;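 also: growth inhibition of ECC10 cells, read out by a cell viability assay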
# Description: SANGER: Inhibition of human ECC10 cell growth in a cell viability assay.
# [5] = tested on: NCI-H2029; test: cells; settings: Homo sapiens;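 also: Read-out is a viability assay on the cultured cells, and IC50 is the concentration that suppresses cell growth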
# Description: SANGER: Inhibition of human NCI-H2029 cell growth in a cell viability assay.
# [6] = tested on: NCI-H1975; test: cells; settings: Homo sapiens
# Description: SANGER: Inhibition of human NCI-H1975 cell growth in a cell viability assay.
# [7] = tested on: ZR-75-30; test: cells; settings: Homo sapiens;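 also: growth inhibition of ZR-75-30 cells, measured with a cell viability readout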
# Description: SANGER: Inhibition of human ZR-75-30 cell growth in a cell viability assay.
# [8] = tested on: NCI-H1666; test: cells; settings: Homo sapiens;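 also: growth inhibition of the cell line, read out with a cell viability assay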
# Description: SANGER: Inhibition of human NCI-H1666 cell growth in a cell viability assay.
# [9] = tested on: EPLC-272H; test: cells; settings: Homo sapiens
# Description: SANGER: Inhibition of human EPLC-272H cell growth in a cell viability assay.
# [10] = tested on: NCI-H1048; test: cells; settings: Homo sapiens;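 also: growth inhibition of human NCI-H1048 cells, read out with a cell viability assay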
# Description: SANGER: Inhibition of human NCI-H1048 cell growth in a cell viability assay.
# [11] = tested on: YH-13; test: cells; settings: Homo sapiens;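 also: cell viability readout of growth suppression in the human YH-13 cell line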
# Description: SANGER: Inhibition of human YH-13 cell growth in a cell viability assay.
# [12] = tested on: H-EMC-SS; test: cells; settings: Homo sapiens
# Description: SANGER: Inhibition of human H-EMC-SS cell growth in a cell viability assay.
# [13] = tested on: LU-135; test: cells; settings: Homo sapiens
# Description: SANGER: Inhibition of human LU-135 cell growth in a cell viability assay.
# [14] = tested on: BT-549; test: cells; settings: Homo sapiens
# Description: SANGER: Inhibition of human BT-549 cell growth in a cell viability assay.
# [15] = tested on: CFPAC-1; test: cells; settings: Homo sapiens;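 also: cell viability readout used to gauge suppression of CFPAC-1 cell proliferation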
# Description: SANGER: Inhibition of human CFPAC-1 cell growth in a cell viability assay.
# [16] = tested on: SW 1116; test: cells; settings: Homo sapiens;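 also: growth inhibition of SW1116 cells, read out with a cell viability assay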
# Description: SANGER: Inhibition of human SW1116 cell growth in a cell viability assay.
# [17] = tested on: H9; test: cells; settings: Homo sapiens
# Description: SANGER: Inhibition of human H9 cell growth in a cell viability assay.
# [18] = tested on: NBsusSR; test: cells; settings: Homo sapiens;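 also: growth inhibition of the human cell line, read out with a cell viability assay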
# Description: SANGER: Inhibition of human NBsusSR cell growth in a cell viability assay.
# [19] = tested on: RH-18; test: cells; settings: Homo sapiens, Rh18;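 also: growth inhibition of human RH-18 cells, read out with a cell viability assay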
# Description: SANGER: Inhibition of human RH-18 cell growth in a cell viability assay.
# [20] = tested on: TI-73; test: cells; settings: Homo sapiens;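 also: cell viability assay measuring how much compounds suppress growth of the cultured cell line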
# Description: SANGER: Inhibition of human TI-73 cell growth in a cell viability assay.
# [21] = tested on: OC-314; test: cells; settings: Homo sapiens
# Description: SANGER: Inhibition of human OC-314 cell growth in a cell viability assay.
# [22] = tested on: SW900; test: cells; settings: Homo sapiens;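 also: IC50 is the concentration that inhibits SW900 cell growth, measured by a cell viability assay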
# Description: SANGER: Inhibition of human SW900 cell growth in a cell viability assay.
# [23] = tested on: ECC12; test: cells; settings: Homo sapiens
# Description: SANGER: Inhibition of human ECC12 cell growth in a cell viability assay.
# [24] = tested on: SKM-1; test: SANGER: Inhibition of human SKM-1 cell growth in a cell viability assay.
# [25] = tested on: CRO-AP2; test: SANGER: Inhibition of human CRO-AP2 cell growth in a cell viability assay.
# [26] = tested on: EW-12; test: SANGER: Inhibition of human EW-12 cell growth in a cell viability assay.
# [27] = tested on: NCI-H2227; test: cells; settings: Homo sapiens;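 also: growth inhibition of the human cell line, read out with a cell viability assay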
# Description: SANGER: Inhibition of human NCI-H2227 cell growth in a cell viability assay.
# [28] = tested on: RL95-2; test: cells; settings: Homo sapiens;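 also: RL95-2 growth inhibition determined through a cell viability readout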
# Description: SANGER: Inhibition of human RL95-2 cell growth in a cell viability assay.
# [29] = tested on: NCI-H128; test: SANGER: Inhibition of human NCI-H128 cell growth in a cell viability assay.
# [30] = tested on: MFE-296; test: SANGER: Inhibition of human MFE-296 cell growth in a cell viability assay.
# [31] = tested on: HCC1143; test: cells; settings: Homo sapiens;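 also: growth inhibition of human HCC1143 cells, read out with a cell viability assay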
# Description: SANGER: Inhibition of human HCC1143 cell growth in a cell viability assay.
# [32] = tested on: MES-SA; test: cells; settings: Homo sapiens;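 also: growth inhibition of human MES-SA cells, read out with a cell viability assay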
# Description: SANGER: Inhibition of human MES-SA cell growth in a cell viability assay.
# [33] = tested on: Caov-4; test: cells; settings: Homo sapiens
# Description: SANGER: Inhibition of human Caov-4 cell growth in a cell viability assay.
# [34] = tested on: MDA-MB-468; test: cells; settings: Homo sapiens
# Description: SANGER: Inhibition of human MDA-MB-468 cell growth in a cell viability assay.
# [35] = tested on: NCI-H838; test: cells; settings: Homo sapiens;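 also: growth inhibition of human NCI-H838 cells, read out by a cell viability assay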
# Description: SANGER: Inhibition of human NCI-H838 cell growth in a cell viability assay.
# [36] = tested on: SNG-M; test: cells; settings: Homo sapiens
# Description: SANGER: Inhibition of human SNG-M cell growth in a cell viability assay.
# [37] = tested on: IPC-298; test: SANGER: Inhibition of human IPC-298 cell growth in a cell viability assay.
# [38] = tested on: C-4-II; test: SANGER: Inhibition of human C-4-II cell growth in a cell viability assay.
# [39] = tested on: COLO 205; test: cells; settings: Homo sapiens
# Description: SANGER: Inhibition of human COLO-205 cell growth in a cell viability assay.
# [40] = tested on: Calu-1; test: SANGER: Inhibition of human Calu-1 cell growth in a cell viability assay.
# [41] = tested on: CCF-STTG1; test: cells; settings: Homo sapiens;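 also: growth inhibition of human CCF-STTG1 cells, determined with a cell viability read-out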
# Description: SANGER: Inhibition of human CCF-STTG1 cell growth in a cell viability assay.
# [42] = tested on: EW-7; test: SANGER: Inhibition of human EW-7 cell growth in a cell viability assay.
# [43] = tested on: SK-CO-1; test: cells; settings: Homo sapiens;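 also: growth inhibition of SK-CO-1 cells, determined by a viability readout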
# Description: SANGER: Inhibition of human SK-CO-1 cell growth in a cell viability assay.
# [44] = tested on: Caov-3 cell line; test: cells; settings: Homo sapiens;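 also: cell growth inhibition read out by a viability assay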
# Description: SANGER: Inhibition of human Caov-3 cell growth in a cell viability assay.
# [45] = tested on: TT; test: cells; settings: Homo sapiens
# Description: SANGER: Inhibition of human TT cell growth in a cell viability assay.
# [46] = tested on: EFE-184; test: cells; settings: Homo sapiens
# Description: SANGER: Inhibition of human EFE-184 cell growth in a cell viability assay.
# [47] = tested on: DMS-53; test: cells; settings: Homo sapiens;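 also: cell viability assay measuring growth inhibition of human DMS-53 cells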
# Description: SANGER: Inhibition of human DMS-53 cell growth in a cell viability assay.
# [48] = tested on: RT-4; test: SANGER: Inhibition of human RT4 cell growth in a cell viability assay.
# [49] = tested on: NCI-H1734; test: cells; settings: Homo sapiens;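 also: growth inhibition of human NCI-H1734 cells, read out with a cell viability assay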
# Description: SANGER: Inhibition of human NCI-H1734 cell growth in a cell viability assay.
# [50] = tested on: PLC-PRF-5; test: cells; settings: Homo sapiens;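 also: growth inhibition of human PLC-PRF-5 cells, read out with a viability assay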
# Description: SANGER: Inhibition of human PLC-PRF-5 cell growth in a cell viability assay.
# [51] = tested on: SNU-475; test: cells; settings: Homo sapiens
# Description: SANGER: Inhibition of human SNU-475 cell growth in a cell viability assay.
structure (smiles),measurement,setting,value
Cn1cc(/C=C2\C(=O)Nc3cccnc32)c2ccccc21,pIC50,[1],< 5.70
same,pIC50,[2],< 5.70
same,pIC50,[3],< 5.70
same,pIC50,[4],< 5.70
same,pIC50,[5],< 5.70
same,pIC50,[6],< 5.70
same,pIC50,[7],< 5.70
same,pIC50,[8],< 5.70
same,pIC50,[9],< 5.70
same,pIC50,[10],< 5.70
same,pIC50,[11],< 5.70
same,pIC50,[12],6.12
same,pIC50,[13],< 5.70
same,pIC50,[14],< 5.70
same,pIC50,[15],< 5.70
same,pIC50,[16],< 5.70
same,pIC50,[17],< 5.70
same,pIC50,[18],< 5.70
same,pIC50,[19],< 5.70
same,pIC50,[20],< 5.70
same,pIC50,[21],< 5.70
same,pIC50,[22],< 5.70
Cc1ccc(NC(=O)c2cccc(C(C)(C)C#N)c2)cc1Nc1ccc2ncn(C)c(=O)c2c1,pIC50,[23],5.77
same,pIC50,[24],< 5.40
same,pIC50,[25],< 5.40
same,pIC50,[26],< 5.40
same,pIC50,[27],< 5.40
same,pIC50,[28],< 5.40
same,pIC50,[29],< 5.40
O=c1[nH]c2ccccc2n1C1CCN(Cc2ccc(-c3nc4cc5[nH]cnc5cc4nc3-c3ccccc3)cc2)CC1,pIC50,[23],< 5.59
same,pIC50,[30],5.86
same,pIC50,[31],< 5.59
same,pIC50,[32],< 5.59
same,pIC50,[33],< 5.59
same,pIC50,[34],< 5.59
same,pIC50,[35],< 5.59
same,pIC50,[36],< 5.59
same,pIC50,[37],< 5.59
same,pIC50,[38],< 5.59
same,pIC50,[39],5.70
same,pIC50,[40],< 5.59
same,pIC50,[41],< 5.59
same,pIC50,[42],< 5.59
same,pIC50,[27],< 5.59
same,pIC50,[43],< 5.59
same,pIC50,[44],< 5.59
same,pIC50,[45],< 5.59
same,pIC50,[46],< 5.59
same,pIC50,[28],< 5.59
same,pIC50,[47],< 5.59
same,pIC50,[48],< 5.59
same,pIC50,[49],< 5.59
same,pIC50,[50],< 5.59
same,pIC50,[51],< 5.59
